Reference: patent EP4768499A1, “MACROCYCLIC PEPTIDE COMPOUND HAVING CELL MEMBRANE PERMEABILITY AND METABOLIC STABILITY, AND LIBRARY CONTAINING SAME” (Chugai Seiyaku Kabushiki Kaisha, priority 2023, dated 2025)
Starred links: 1 amine or outer side, 2 acyl side, 3 side chain; linkers in the order of their positions; H or OH if unused. Positions of bridges follow the written chain, without caps; N, C: chain ends. Non-standard residues stand in square brackets, D forms with d. Residues, ends and D or L forms follow the SMILES beside them. *: point of attachment. NMeF = CN[C@@H](Cc1ccccc1)C(=O)O; NMeGABA = CN(CCCC(=O)[*:2])[*:1]; NMeI = CC[C@H](C)[C@H](NC)C(=O)O; NMeT = CN[C@H](C(=O)O)[C@@H](C)O; hPhe = N[C@@H](CCc1ccccc1)C(=O)O; NMeβAla = CN(CCC(=O)[*:2])[*:1]; NMeD = CN[C@@H](CC(=O)O)C(=O)O; NMeL = CN[C@@H](CC(C)C)C(=O)O; NMeV = CN[C@H](C(=O)O)C(C)C; d(β3hA) = C[C@@H](N)CC(=O)O; NMeAbu = CC[C@H](NC)C(=O)O; NMeA = CN[C@@H](C)C(=O)O; Piperidide = C1CCN(*)CC1; Abu = CC[C@H](N)C(=O)O; βAla = NCCC(=O)O; Sar = CNCC(=O)O; tBu = CC(C)(C)*

Legend:
[1] = Membrane permeability test using Caco-2 cells with preincubation; format: in vitro ADME; settings: Caco-2; preincubation 20 to 24 hours; Apical FaSSIF/HBSS pH 6.0, Basal HBSS 4% BSA pH 7.4; 180 minutes; read-out: Caco2 Papp
Procedure: (§1) The permeability coefficient (Caco-2 Papp (cm/sec)) is calculated using a numerical expression 1. [Expression 1] Papp = (1)/(C1 (0) × S) × (dQ)/(dt) [formula] dQ/dt represents the permeation rate of drug (the amount of drug appearing on the Basal side per unit time), S represents the total surface area of cells, and C1(0) represents the concentration of drug added on the Apical side.
(§2) Using a mixed medium of FaSSIF containing 1% DMSO and DMEM as the apical medium, and DMEM as the basal medium, Caco-2 cells and peptide compounds are preincubated for 20 to 24 hours under conditions of 5% CO2, 37°C, and 80 rpm. Afterward, the culture medium on the Apical side and the Basal side are aspirated and washed, the peptide compound was added to a FaSSIF/HBSS buffer solution containing 1% DMSO (1% DMSO) (pH 6.0) at the Apical side, a HBSS buffer solution containing 4% BSA (pH 7.4) was added to the Basal side, and measurement of membrane permeability is started. Each well is shaken under 5% CO2 at 37°C and 80 rpm, and at 180 minutes after the start of shaking, a sample on the Basal side is collected. The amount of peptide compounds in the sample was measured using LCMS, and the membrane permeability coefficient was calculated from the permeation amount (Table 7). When calculating the membrane permeability coefficient (Papp) from the permeation amount, the following expression can be used. Papp = (dQ)/(dt) × (1)/(C1 (0) × S) [formula]
(§3) dQ/dt represents the permeation rate of drug (the amount of drug appearing on the Basal side per unit time), C1(0) represents the concentration of drug added on the Apical side, and S represents the total surface area of cells.

[2] = tested on: Caco-2 cells; test: as above; format: in vitro ADME; settings: preincubation 20 to 24 hours; for Caco2 Papp (10^-6 cm/sec): Caco-2 cells, apical FaSSIF/HBSS 1% DMSO pH 6.0, basal HBSS 4% BSA pH 7.4, basal sample at 180 minutes; for Caco2 Papp: Apical FaSSIF/HBSS pH 6.0, Basal HBSS 4% BSA pH 7.4, 180 minutes
Procedure: as §1, §2, §3

[3] = Metabolic stability test: liver microsomal stability assay; format: in vitro ADME, mouse; settings: mouse liver microsomes 0.5 mg protein/mL, compound 1 µM; for microsomal CLint at 1 µM: male, pH 7.4, presence of NADPH, read-out: Mouse Hepatic Microsome CLh,int NADPH(+); for Mouse Hepatic Microsome CLh,int NADPH(-): absence of NADPH
Procedure: Under the presence and absence of NADPH, a microsome solution prepared to a concentration of 0.5 mg protein/mL using 100 mM phosphate buffer (pH 7.4) with mouse liver microsomes (male, Corning Incorporated, USA) and the compound at a concentration of 1 µM were subjected to a metabolic reaction for 22 minutes, 44 minutes, or 66 minutes. Protein removal processing was performed over time using acetonitrile, and the remaining amount of unchanged compound was analyzed using LCMS to calculate the intrinsic hepatic clearance (CLh, int) (Table 6).

Row | Papp A→B [1] | Caco2 Papp (10^-6 cm/sec) [2] | microsomal CLint at 1 µM [3] | Mouse Hepatic Microsome CLh,int NADPH(-) [3] | Caco2 Papp [2] | SMILES
1 | 0.94 ×10⁻⁶ cm/s | 0.94 10^-6 cm/sec | 34.2 µL/min/mg | 29.6 µL/min/mg Protein |  | CC[C@H](C)[C@H]1C(=O)N[C@@H](Cc2ccccc2)C(=O)N2CCC[C@H]2C(=O)N(C)[C@@H](CC(C)C)C(=O)N[C@@H](COC(C)(C)C)C(=O)N(C)[C@@H](Cc2ccccc2)C(=O)N[C@@H]([C@@H](C)O)C(=O)N(C)[C@@H](CC)C(=O)N2CCC[C@H]2C(=O)N(C)[C@@H](CC(C)C)C(=O)N(C)[C@@H](C(C)C)C(=O)N[C@H](C(=O)N2CCCCC2)CC(=O)N(C)CCCC(=O)N(C)[C@@H](CC(C)C)C(=O)N1C [pd001] ([NMeGABA][NMeL][NMeI]FP[NMeL]S(tBu)[NMeF]T[NMeAbu]P[NMeL][NMeV]D-Piperidide; lactam N-14)
2 | 0.39 ×10⁻⁶ cm/s | 0.39 10^-6 cm/sec | 34.2 µL/min/mg | 30.1 µL/min/mg Protein |  | CC[C@H](C)[C@@H]1NC(=O)[C@@H]2CCCN2C(=O)[C@H](CC(C)C)N(C)C(=O)[C@H](Cc2ccccc2)N(C)C(=O)[C@H]([C@@H](C)CC)N(C)C(=O)[C@H]([C@@H](C)O)NC(=O)[C@H](Cc2ccccc2)N(C)C(=O)[C@H](CC)N(C)C(=O)[C@H](C(C)C)NC(=O)[C@H](CC)N(C)C(=O)[C@H](CC(C)C)N(C)C(=O)[C@H](C)N(C)C(=O)C[C@@H](C(=O)N2CCCCC2)NC(=O)[C@H](C(C)C)N(C)C1=O [pd002] ([NMeA][NMeL][NMeAbu]V[NMeAbu][NMeF]T[NMeI][NMeF][NMeL]PI[NMeV]D-Piperidide; lactam N-14)
3 | 0.27 ×10⁻⁶ cm/s | 0.27 10^-6 cm/sec | 17.9 µL/min/mg | 19.0 µL/min/mg Protein |  | CC[C@H](C)[C@H]1C(=O)N[C@@H]([C@@H](C)O)C(=O)N(C)CC(=O)N(C)[C@@H](CC(C)C)C(=O)N(C)[C@@H](Cc2ccccc2)C(=O)N[C@H](C(=O)N2CCCCC2)CC(=O)N(C)[C@@H](C)C(=O)N[C@@H](CC(C)C)C(=O)N(C)[C@@H](Cc2ccccc2)C(=O)N(C)CCC(=O)N(C)[C@@H](CC(C)C)C(=O)N[C@@H](CC(C)C)C(=O)N(C)[C@@H](C)C(=O)N(C)[C@@H](CC)C(=O)N1C [pd003] ([NMeA]L[NMeF][NMeβAla][NMeL]L[NMeA][NMeAbu][NMeI]T[Sar][NMeL][NMeF]D-Piperidide; lactam N-14)
4 | 0.82 ×10⁻⁶ cm/s | 0.82 10^-6 cm/sec | 36.2 µL/min/mg | 27.4 µL/min/mg Protein |  | CC[C@H](C)[C@@H]1NC(=O)[C@H](C)N(C)C(=O)C[C@@H](C(=O)N2CCCCC2)NC(=O)[C@H](CC)N(C)C(=O)[C@H](COC(C)(C)C)NC(=O)[C@H](CC(C)C)N(C)C(=O)[C@H](C)N(C)C(=O)[C@H](CC(C)C)N(C)C(=O)[C@H](Cc2ccccc2)N(C)C(=O)CN(C)C(=O)[C@H]([C@@H](C)O)NC(=O)[C@H](CC(C)C)N(C)C(=O)[C@H](C(C)C)N(C)C(=O)[C@H](Cc2ccccc2)N(C)C1=O [pd004] ([NMeA]I[NMeF][NMeV][NMeL]T[Sar][NMeF][NMeL][NMeA][NMeL]S(tBu)[NMeAbu]D-Piperidide; lactam N-14)
5 | 0.05 ×10⁻⁶ cm/s | 0.05 10^-6 cm/sec | 1.4 µL/min/mg | 1.1 µL/min/mg Protein |  | CC[C@@H]1NC(=O)[C@H](C)N(C)C(=O)[C@H](CC(C)C)N(C)C(=O)[C@H]([C@@H](C)O)N(C)C(=O)[C@H](CC(C)C)N(C)C(=O)CCNC(=O)[C@H](Cc2ccccc2)N(C)C(=O)CN(C)C(=O)C[C@@H](C(=O)N2CCCCC2)NC(=O)[C@H](C(C)C)N(C)C(=O)[C@H](C)N(C)C(=O)[C@@H]2CCCN2C(=O)[C@H](C(C)C)NC(=O)[C@H](Cc2ccccc2)N(C)C1=O [pd005] ([Sar][NMeF][βAla][NMeL][NMeT][NMeL][NMeA][Abu][NMeF]VP[NMeA][NMeV]D-Piperidide; lactam N-14)
6 |  | 0.04 10^-6 cm/sec | 32.5 µL/min/mg | 26.2 µL/min/mg Protein | 0.04 10^-6 cm/sec | CC[C@@H]1NC(=O)[C@H]([C@@H](C)CC)NC(=O)[C@H](Cc2ccccc2)N(C)C(=O)[C@H](CC(C)C)N(C)C(=O)[C@H](CC(C)C)NC(=O)CCN(C)C(=O)C[C@@H](C(=O)N2CCCCC2)NC(=O)[C@H](C(C)C)NC(=O)[C@H](CC(C)C)N(C)C(=O)[C@H](C)N(C)C(=O)[C@H](C(C)C)NC(=O)[C@H](CC(C)C)N(C)C(=O)[C@H](COC(C)(C)C)NC(=O)[C@H](Cc2ccccc2)N(C)C1=O [pd015] ([NMeβAla]L[NMeL][NMeF]I[Abu][NMeF]S(tBu)[NMeL]V[NMeA][NMeL]VD-Piperidide; lactam N-14)
7 |  | 0.21 10^-6 cm/sec | 24.6 µL/min/mg | 28.8 µL/min/mg Protein | 0.21 10^-6 cm/sec | CC[C@@H]1NC(=O)CCN(C)C(=O)C[C@@H](C)NC(=O)[C@H](CC(C)C)N(C)C(=O)[C@H]([C@@H](C)O)NC(=O)[C@H](C)N(C)C(=O)[C@H]([C@@H](C)CC)NC(=O)[C@H](CCc2ccccc2)NC(=O)[C@H](CC(C)C)N(C)C(=O)[C@H](C)N(C)C(=O)[C@H](Cc2ccccc2)N(C)C(=O)[C@@H]2CCCN2C(=O)[C@H]([C@@H](C)CC)NC(=O)[C@H](CC(C)C)N(C)C1=O [pd051] (cyclo([Abu][NMeL]IP[NMeF][NMeA][NMeL][hPhe]I[NMeA]T[NMeL][d(β3hA)][NMeβAla]))
8 |  | 0.22 10^-6 cm/sec | 26.9 µL/min/mg | 26.9 µL/min/mg Protein | 0.22 10^-6 cm/sec | CC[C@H](C)[C@@H]1NC(=O)[C@H]([C@@H](C)CC)N(C)C(=O)[C@@H](C)NC(=O)C[C@@H](C(=O)N2CCCCC2)N(C)C(=O)[C@H](C(C)C)NC(=O)[C@H](Cc2ccccc2)N(C)C(=O)[C@H](C(C)C)NC(=O)[C@H](CC(C)C)N(C)C(=O)[C@H](C)NC(=O)CN(C)C(=O)[C@H](CC(C)C)N(C)C(=O)[C@H](C(C)C)NC(=O)[C@H](C)N(C)C(=O)[C@H](Cc2ccccc2)N(C)C1=O [pd074] ([dA][NMeI]I[NMeF][NMeA]V[NMeL][Sar]A[NMeL]V[NMeF]V[NMeD]-Piperidide; lactam N-14)
9 |  | <0.10 10^-6 cm/sec | 10.9 µL/min/mg | 18.2 µL/min/mg Protein | <0.10 10^-6 cm/sec | CC[C@@H]1NC(=O)[C@H](CC(C)C)N(C)C(=O)[C@H](C)NC(=O)CN(C)C(=O)[C@H](CC(C)C)N(C)C(=O)CCN(C)C(=O)[C@H](Cc2ccccc2)N(C)C(=O)[C@H]([C@@H](C)CC)NC(=O)[C@H]([C@@H](C)CC)N(C)C(=O)[C@@H](C)NC(=O)C[C@@H](C(=O)N2CCCCC2)N(C)C(=O)[C@H](Cc2ccccc2)N(C)C(=O)[C@H](C(C)C)NC(=O)[C@H](C)N(C)C1=O [pd076] ([dA][NMeI]I[NMeF][NMeβAla][NMeL][Sar]A[NMeL][Abu][NMeA]V[NMeF][NMeD]-Piperidide; lactam N-14)

Row | SMILES | Papp A→B [1] | Caco2 Papp (10^-6 cm/sec) [2] | microsomal CLint at 1 µM [3] | Mouse Hepatic Microsome CLh,int NADPH(-) [3] | Caco2 Papp [2]
10 | CC[C@@H]1NC(=O)[C@H](CC(C)C)N(C)C(=O)[C@H](COC(C)(C)C)NC(=O)[C@H](Cc2ccccc2)N(C)C(=O)[C@H](CC)NC(=O)[C@H](Cc2ccccc2)N(C)C(=O)[C@H](C)N(C)C(=O)[C@H](CC(C)C)N(C)C(=O)[C@H](CC(C)C)NC(=O)CCCN(C)C(=O)C[C@@H](C(=O)N2CCCCC2)NC(=O)[C@H](CC(C)C)N(C)C(=O)[C@H](C(C)C)NC(=O)[C@H](C)N(C)C1=O [pd016] ([NMeGABA]L[NMeL][NMeA][NMeF][Abu][NMeF]S(tBu)[NMeL][Abu][NMeA]V[NMeL]D-Piperidide; lactam N-14) |  | 0.47 10^-6 cm/sec | 49.9 µL/min/mg | 32.9 µL/min/mg Protein | 0.47 10^-6 cm/sec
11 | CC[C@H](C)[C@H]1C(=O)N[C@@H](CC(C)C)C(=O)N(C)[C@@H](CC(C)C)C(=O)N(C)[C@@H](C(C)C)C(=O)N(C)[C@@H](C)C(=O)N[C@@H]([C@@H](C)O)C(=O)N(C)[C@@H](CC(C)C)C(=O)N[C@H](C)CC(=O)N(C)CCC(=O)N[C@@H](CCc2ccccc2)C(=O)N(C)[C@@H](CC(C)C)C(=O)N2CCC[C@H]2C(=O)N(C)[C@@H](Cc2ccccc2)C(=O)N(C)[C@@H](C)C(=O)N1C [pd060] (cyclo(L[NMeL][NMeV][NMeA]T[NMeL][d(β3hA)][NMeβAla][hPhe][NMeL]P[NMeF][NMeA][NMeI])) |  | 0.63 10^-6 cm/sec | 32.4 µL/min/mg | 38.6 µL/min/mg Protein | 0.63 10^-6 cm/sec
